Values of other authors, collected in patent US20210379090A1, “REMDESIVIR ORAL DELIVERY SYSTEM” (ABON PHARMACEUTICALS, LLC, priority 2020, published 2021).

How the values were obtained:
[1] = tested on: COVID-19; conditions: received early within 10 days of symptom onset vs treated late after more than 10 days of symptoms
[2] = would likely result in almost complete first-pass clearance after oral delivery

For Remdesivir, the clinical outcome [1] is listed as “improved outcomes”, the hepatic stability [2] is listed as “poor hepatic stability” and the solubility in water is listed as “practically insoluble”.
